Kd and stoichiometry N data for two compounds are collected here from paper PMC4899218 (Molecular microbiology, 2016).

For assay [1], the target named is EmoA (EDTA-degrading bacterium BNC1, UniProt Q9F9T3). As to the kind of experiment: ITC. The assay is classed as binding.
Assay [2] concerns the target EDTA monooxygenase (EmoA) from Chelativorans sp. BNC1 (Chelativorans sp. BNC1). As to the kind of experiment: SEC-MALS.

`Cc1cc2nc3c(=O)[nH]c(=O)nc-3n(C[C@H](O)[C@H](O)[C@H](O)COP(=O)(O)O)c2cc1C` [FMN] showed a Kd in assay [1] of 330 nM. In assay [2], “EDTA monooxygenase (EmoA) from Chelativorans sp. BNC1 (enzyme)” gave a stoichiometry N of 2.

A word on the Kd: it is the equilibrium constant for the complex coming apart. In general, stoichiometry N refers to a count of units in the complex or per binding partner.
